These results are taken from patent publication US11857544B2, “Composition or method including (t)ew-7197 for treating or preventing corneal endothelial diseases” (THE DOSHISHA, priority 2017, dated 2024).

One assay relates to PARP. Nature of the assay: Western blot for PARP in TGF-β-stimulated iFECD. The following applies: 0.1, 1, 10 μM. In kind it is cell-based, human. Here is the method:
[…] were seeded on a 12-well plate at a ratio of 8×10^4 cells per well, and cultured at 37° C. (5% CO2) for 24 hours. DMEM+10% FBS+1% P/S was used as the medium. After 24 hours, the medium was removed. EW-7197 (Selleck Chemicals, 57530) was added so that the final concentration would be 0.1, 1, or 10 μM, and SB431542 (WAKO, 192-16541) was added so that the final concentration would be 10 μM, and the medium was cultured for 24 hours. DMEM+2% FBS+1% P/S was used as the medium. After 24 hours, the medium was removed and cultured […] so that the final concentration of 10 ng/ml of Transforming Growth Factor-132 Human recombinant (WAKO, 200-19911) and […] would be 0.1, 1, and 10 μM, and that of SB431542 would be 10 μM. DMEM+2% FBS+1% P/S was used as the medium. After 24 hours, the cell morphology and apoptosis were observed under a phase contrast microscope. To retrieve floating and dead cells, the medium was retrieved on ice, cells were washed twice with 1×PBS(-) and the solution thereof was also retrieved. The solution was centrifuged for 5 min at 4° C. and 800 g and the supernatant was discarded to obtain a precipitate. […] The detected band intensities were analyzed with Lumino Image Analyzer LAS-4000 mini (Fuji Film) and ImageQuantTM software (GE Healthcare).
A general note: Immunoblotting shows a protein as a band on a membrane.

Assay [1] has as its system Col8a2 knock-in mice. Nature of the assay: Corneal endothelial cell density after eye drops in Col8a2 knock-in mice (Example 5, 8 weeks). In kind it is in vivo. The settings on record: for Amount of change in the corneal endothelial cell density (ΔECD): 0.02% eye drop 4 times a day. As for the experimental part:
This Example evaluated the efficacy of an EW-7197 eye drop on Fuchs' endothelial corneal dystrophy using a Fuchs' endothelial corneal dystrophy animal model, Col8a2 knock-in mice. Col8a2 knock-in mice are established animal models of Fuchs' endothelial corneal dystrophy (reference: Jun et al., Hum Mol Genet. 2012 Jan. 15; 21(2): 384-93). 5 μL of 0.02% (about 0.5 mM) EW-7197 eye drop or a base agent (7% DMSO containing PBS) was administered as an eye drop to both eyes of 4-month-old alpha 2 collagen 8 gene (Col8a2) knock-in mice 4 times a day for 8 weeks. The corneal endothelial cell density was measured using a specular microscope KS3M (Konan Medical, Inc.) at before eye drops, and 2, 4, 6, and 8 weeks after eye drops. Mice were euthanized by intraperitoneally administering an excessive amount (200 mg/kg body weight or greater) of anesthetic injection Somnopentyl (Kyoritsu Seiyaku Corporation) 8 weeks after injection. After confirming cardiac arrest, both eye balls were harvested. The harvested eye balls were incised to prepare a corneal fragment. Immunostaining of type I collagen and fibronectin was performed as follows. Image-Pro (Nippon Roper K.K.) was used to analyze the area of type I collagen and fibronectin expression.

For assay [2], the system named is Col8a2 knock-in mice. Kind of assay: Corneal endothelial cell density after eye drops in Col8a2 knock-in mice (Example 6, 12 weeks). It counts as in vivo. The following applies: eye drop group (0.02%, 0.1%). As for the experimental part: 5 μL of 0.02% (about 0.5 mM) EW-7197 eye drop, 0.1% (about 2.5 mM) EW-7197 eye drop, or a base agent (DMSO containing phosphate buffer) was administered as an eye drop to both eyes of 4-month-old alpha 2 collagen 8 gene (Col8a2) knock-in mice 4 times a day for 12 weeks. A surfactant was added to the base agent as needed. Those skilled in the art can use an appropriate and suitable surfactant (Kenji Motose (1984). “Tenganzai” [Eye drops] Nanzando; International Pharmaceutical Excipients Council Japan (2016). “Iyakuhin Tenkabutsu Jiten” [Pharmaceutical Excipient Encyclopedia] Yakuji Nippo, Limited). The corneal endothelial cell density was measured using a specular microscope KS3M (Konan Medical, Inc.) at before eye drops, and 3, 6, 9, and 12 weeks after eye drops. Mice were euthanized by intraperitoneally administering an excessive amount (200 mg/kg body weight or greater) of anesthetic injection Somnopentyl (Kyoritsu Seiyaku Corporation) 12 weeks after injection. After confirming cardiac arrest, both eye balls were harvested. The harvested eye balls were incised to prepare a corneal fragment. Immunostaining of fibronectin was performed. The immunostaining method was the following. Image-Pro (Nippon Roper K.K.) was used to analyze the area of fibronectin expression.

In the case of `Cc1cccc(-c2[nH]c(CNc3ccccc3F)nc2-c2ccc3ncnn3c2)n1` [EW-7197, N-((4-([1,2,4]triazolo[1,5-a]pyridin-6-yl)-5-(6-methylpyridin-2-yl)-1H-imidazol-2-yl)methyl)-2-fluoroaniline], in the assay with PARP, the “PARP (about 89 kDa)” value is on record as “suppressed to the same degree as the control group without stimulation with TGF-β or 10 μM of SB431542”. For the same compound, the “decrease in the corneal endothelial cell density compared to the base agent group” value with Col8a2 knock-in mice [1] (0.02% eye drop) was “suppressed significantly”. The “Amount of change in the corneal endothelial cell density (ΔECD)” value is 0 cells/mm^2 with Col8a2 knock-in mice [1] (week 0 (before eye drop)), −121.4 cells/mm^2 in the assay on Col8a2 knock-in mice [1] (week 4) and −284.5 cells/mm^2 in the assay on Col8a2 knock-in mice [1] (week 8). Also, in the assay on Col8a2 knock-in mice [2] (up to week 6), the “corneal endothelial density at the center section of the cornea” value is given as “tendency for suppressing a decrease”. The “corneal endothelial density at the center section of the cornea vs base agent eye drop group” value in the assay on Col8a2 knock-in mice [2] (week 12) is given as “a significant difference in the corneal endothelial density at the center section of the cornea was not observed”.
